The values that follow come from patent US8822640B2, “Tetrameric streptavidin mutein with reversible biotin binding capability” (UTI Limited Partnership, priority 2011, dated 2014).

Series [1] is described as follows: BIAcore biosensor kinetic parameters of biotin binding in streptavidin muteins. As to conditions: for ka or kon / kd or koff / Kd: BIAcore, biotinylated IgG on chip, mutein injected; for t1/2, half-life of biotin in the SAV-biotin complex: estimated as 0.693/koff/60; for Kd: read-out: Kd (biotin binding affinity). On the procedure:
The kinetic parameters for these muteins were determined using the BIAcore biosensor. Biotinylated IgG proteins were immobilized to the sensor chip and purified streptavidin muteins were injected to determine the binding properties:
(§1) Other methods. BIAcore biosensor for determining the kinetic parameters, preparation of streptavidin-agarose matrix and purification of biotinylated proteins were performed as previously described (Wu and Wong, 2005a; Wu and Wong, 2005b).

Series [2] is described as follows: Binding to biotin-agarose, elution with 4 mM biotin, rebinding after dialysis. On the procedure:
In order to characterize these muteins, it is essential to purify each of these muteins for further analyses. […] After dialysis to remove any biotin from the pooled elution fraction, the purified muteins could rebind to the biotin-agarose matrix and could be eluted off again by 4 mM biotin in the buffer. This indicates the reversible biotin binding capability in these muteins.
Production and affinity purification of streptavidin muteins. Bacillus subtilis cells carrying the expression vectors were cultivated in super-rich medium (Wu et al., 2002) at 30° C. for 9-12 hours. Culture supernatant was collected by centrifugation and streptavidin muteins were affinity purified using biotin-agarose as described previously (Wu and Wong, 2005a).
Bound biotin in the 8-aa-loop-H127C mutein can be removed by dialysis. Purified 8-aa-loop-H127C muteins eluted from the biotin agarose by 4 mM biotin will contain bound biotin. If biotin binding is reversible, bound biotin should be removable by dialysis. Indeed, the dialyzed 8-aa-loop-H127C muteins could rebind to the biotin-agarose column and could be eluted off from the column by 4 mM biotin in the elution buffer (FIG. 5). […] Some 8-aa-loop-H127C mutein molecules could be observed in the flow-through fraction. This is probably because of overloading the column with excess muteins.

Series [3] in a line: Ligand energy inspector, Molegro molecular viewer (MolDock score), biotin binding pocket of subunit A. On the procedure: Replacement of residues in loop7-8 of the wild-type streptavidin results in allowing loop7-8 to become flexible and changing the relative orientation of subunits in the tetrameric structure. These structural changes lead to lowering of the biotin binding affinity in the 8-aa-loop-H127C mutein. The strength of biotin interaction with streptavidin was analyzed using the ligand energy inspector function in the Molegro molecular viewer program (Thomsen and Christensen, 2006). The more the negative value indicates the stronger interaction. […] In reference to the wild-type streptavidin, a few residues in the 8-aa-loop-H127C mutein have a little bit stronger interactions with biotin (data not shown). However, the net outcome is that the 8-aa-loop-H127C mutein has a weaker biotin binding affinity.

Series [4] concerns biotinylated protein G and biotinylated IgG. Description: Mutein-agarose affinity matrix: purification of biotinylated proteins, matrix stability and reuse. The conditions noted are these: comparison of FIGS. 7 and 10. On the procedure: as §1
Stable subunit interactions in the 8-aa-loop-H127 mutein. The purified 8-aa-loop-H127C mutein can be immobilized to the agarose matrix with an estimated concentration of 3.8 mg/ml of settled agarose beads. […] Since it is likely that only one subunit in an tetrameric 8-aa-loop-H127C mutein was chemically coupled to the matrix (the other three subunits associated with the immobilized subunit via non-covalent interactions), this observation illustrates that the subunit interactions between the subunits in the tetrameric 8-aa-loop-H127C mutein were stable enough and the non-covalently associated subunits were not washed off from the column under the conditions used for the binding, washing and elution processes.
Application of the 8-aa-loop-H127C mutein-agarose matrices for purification of biotinylated protein G and biotinylated IgG. […] The bound biotinylated proteins could be eluted off from the column using 4 mM biotin (FIGS. 7 and 8).

For series [5] the following is noted: literature values, cited from earlier work.
For series [6] the following is noted: known value, cited from earlier work.

“Also recorded” adds a separate entry of the source. Where two headings read alike, the source gives them in different places.

For the substance “6-aa-loop mutein: streptavidin mutein with engineered loop7-8 D S N G S G (SEQ ID NO: 16) (DSNGSG; listed as Bacillus subtilis)”, in series [1], the ka or kon was 24300 M⁻¹ s⁻¹; the kd or koff worked out at 7.59e-05 s⁻¹; the “t1/2, half-life of biotin in the SAV-biotin complex” value (shortened to “t1/2, half-life of biotin”) is listed as 152 min.
With “8-aa-loop-H127C mutein: tetrameric streptavidin mutein, loop7-8 replaced by D S S N G S D G, with H127C mutation (SEQ ID NO: 14) (DSSNGSDG; listed as Bacillus subtilis)”, the reversible biotin binding entry in series [2] was “can bind to biotin-agarose and can be eluted off from the matrix by 4 mM biotin; also recorded: biotin binds to this protein in a reversible manner”. Further, in series [1], the ka or kon was found to be 22100 M⁻¹ s⁻¹; the kd or koff was 0.000428 s⁻¹; the Kd (usually the free concentration of one partner at which half of the binding sites on the other are occupied at equilibrium, for simple one-to-one binding) worked out at 19 nM; the “t1/2, half-life of biotin” value is given as 27 min. In series [3] (residue contribution), the “Difference (wild-type − mutein), Asn 23” value is given as −1.1; the “Difference (wild-type − mutein), Asp128” value is −3.3; the “Difference (wild-type − mutein), Leu 25” value is −0.8; the “Difference (wild-type − mutein), Lys 121 (from subunit D)” value is reported as −1.3. Further, in series [3] (residue contribution), the “Difference (wild-type − mutein), Ser 45” value is on record as −1.4 and the “Difference (wild-type − mutein), Trp 120 (from subunit D)” value is recorded as −10.5. Besides, the “Difference (wild-type − mutein), MolDock score” value in series [3] (total) is listed as −14.4. In addition, in series [4], the “binding capacity of the matrix for biotinylated protein G” value is “much better binding capacity than the matrix with the Roche streptavidin mutein”.
“W120A mutein: streptavidin mutein with Trp-120 changed to alanine [reference compound]”: the dissociation constant (Kd) in series [5] (read-out: dissociation constant (Kd) for biotin) is 3 nM.
“Wild-type streptavidin: 52,800 dalton tetrameric protein from Streptomyces avidinii, SEQ ID NO:1”: the “isoelectric point (pI)” value in series [6] is approximately 5; in series [6] (listed as natural streptavidin) it was 5-6. For the same substance, in series [5], the “dissociation constant (Kd) for biotin” value was 10^−13 to 10^−14 M.
As to “ΔWHC: streptavidin mutein with Trp-120 deleted (loop T T E A N A K) and H127C mutation (SEQ ID NO: 13) (TTEANAK; listed as Bacillus subtilis)”, in series [1], the ka or kon is 49600 M⁻¹ s⁻¹; the kd or koff was determined as 0.0004 s⁻¹; the Kd was approximately 1 nM; the “t1/2, half-life of biotin” value is reported as 28.9 min. Also, the Kd in series [1] (listed as ΔW-HC) worked out at 8.1 nM.
